Measured values taken from patent publication US20210228545A1, “METHODS OF TREATING CONDITIONS RELATED TO THE S1P1 RECEPTOR” (Arena Pharmaceuticals, Inc., priority 2018, published 2021).

How the values were obtained:
[1] = in vivo; cited from earlier work
[2] = Phase II, relapsing-remitting multiple sclerosis; cited from earlier work
[3] = short-term high dose; cited from earlier work
[4] = mice; cited from earlier work
[5] = spared nerve injury model; cited from earlier work
[6] = murine; cited from earlier work
[7] = prophylactic oral 1 mg/kg, three times a week; cited from earlier work
[8] = target: T1, CYP2C8 (Homo sapiens, UniProt P10632); test: CYP reaction phenotyping in HLMs with selective chemical inhibitor; format: in vitro ADME
T1 construct: human liver microsomes from a pool of 200 individuals; from tissue; host or cells: human liver microsomes, pool of 200 individuals
T1 sequence (P10632 1-490): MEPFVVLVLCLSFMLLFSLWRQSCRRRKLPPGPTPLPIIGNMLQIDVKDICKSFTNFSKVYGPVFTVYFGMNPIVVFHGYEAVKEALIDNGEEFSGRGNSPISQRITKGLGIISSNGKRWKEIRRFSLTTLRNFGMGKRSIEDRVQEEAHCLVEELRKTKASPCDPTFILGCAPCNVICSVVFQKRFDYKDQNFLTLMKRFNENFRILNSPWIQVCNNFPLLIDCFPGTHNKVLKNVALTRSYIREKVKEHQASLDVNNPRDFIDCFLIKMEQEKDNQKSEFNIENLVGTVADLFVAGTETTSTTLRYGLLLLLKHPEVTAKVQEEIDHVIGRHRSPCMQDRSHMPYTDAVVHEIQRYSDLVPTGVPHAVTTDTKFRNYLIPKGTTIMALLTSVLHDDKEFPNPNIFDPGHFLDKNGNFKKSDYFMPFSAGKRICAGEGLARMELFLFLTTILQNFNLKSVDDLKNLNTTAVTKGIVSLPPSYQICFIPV

| SMILES | Adverse event in clinical trials [1] | Effect on MRI lesions and clinical disease activity [2] | Effect on ocular infiltrates [3] | Effect on ovariectomy-induced osteoporosis [4] | Effect on nociceptive behavior [5] | Effect on contact hypersensitivity [6] | Development of EAMG [7] | Inhibition of conversion of Compound 1 to first oxidative metabolite [8] [%] | Inhibition of conversion of Compound 1 to ketone metabolite [8] [%] | Inhibition of conversion of Compound 1 to second oxidative metabolite [8] [%] |
| --- | --- | --- | --- | --- | --- | --- | --- | --- | --- | --- |
| CCCCCCCCc1ccc(CCC(N)(CO)CO)cc1 [FTY720] | transient asymptomatic bradycardia | reduce the number of lesions detected by magnetic resonance imaging (MRI) and clinical disease activity | rapidly reduced ocular infiltrates | relieved ovariectomy-induced osteoporosis | reduce the nociceptive behavior | impair initiation | completely prevented | – | – | – |
| Cc1ccc(C)c(OCCCC(C)(C)C(=O)O)c1 [gemfibrozil] | – | – | – | – | – | – | – | 85 | 60 | 47 |
